According to PubChem BioAssay AID2060909 (Molecular Pharmacology Branch, DTP, NCI, 2025):

System: 362531-283-R-J2-PDC complex spheroid viability
Test: Anticancer human tumor 362531-283-R-J2-PDC patient-derived colon adenocarcinoma cell line growth inhibition [RAS]
Conditions: for viability, T/C: stronger effect = lower value
How it was run: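 Multi-cell-type spheroids: tumor cells plus HUVEC endothelial cells and mesenchymal stem cells. RAS-pathway inhibitors were combined with targeted agents, each dosed in half-log steps down from clinical Cmax, or from 10 microM when Cmax was unknown.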
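Further: spheroids exposed to the agents for 7 days before readout.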
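Wherever viability, T/C is given: luminescence viability as percent of DMSO vehicle control wells.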

Cc1nc(N2CCC3(CC2)COC(C)C3N)c(CO)nc1Sc1ccnc(N)c1Cl (stereo unspecified)
viability, T/C (compound 0.0316 µM): 101% [middle of 4 runs] | viability, T/C (compound 0.1 µM): 107% [middle of 4 runs] | viability, T/C (compound 0.316 µM): 100% [middle of 4 runs] | viability, T/C (compound 1 µM): 88.8% [middle of 4 runs] | viability, T/C (compound 3.16 µM): 91.8% [middle of 4 runs] | viability, T/C (compound 10 µM): 80% [middle of 4 runs] | IC50 (curve of compound): > 10000 nM

CC1(C)CCC(Nc2ncc(C(F)(F)F)c(-c3c[nH]c4c(P(C)(C)=O)c(C#N)ccc34)n2)CN1 (stereo unspecified) + CCn1c(-c2cccnc2C(C)OC)c2c3cc(ccc31)N1CCOC(CC(NC(=O)C(C(C)C)N(C)C(=O)C3(F)CCN(C(=O)C#CC(C)(C)N(C)C)CC3)C(=O)N3CCCC(N3)C(=O)OCC(C)(C)C2)C1
IC50 (curve of first compound, second compound 0.000949 µM): > 300 nM | IC50 (curve of first compound, second compound 0.003 µM): > 300 nM | IC50 (curve of first compound, second compound 0.00949 µM): > 300 nM | IC50 (curve of first compound, second compound 0.03 µM): > 300 nM | IC50 (curve of first compound, second compound 0.0949 µM): > 300 nM | IC50 (curve of first compound, second compound 0.3 µM): > 300 nM | viability, T/C (second compound 0.000949 µM, first compound 0.000949 µM): 105% | viability, T/C (second compound 0.000949 µM, first compound 0.003 µM): 99.2% | viability, T/C (second compound 0.000949 µM, first compound 0.00949 µM): 102% | viability, T/C (second compound 0.000949 µM, first compound 0.03 µM): 98.3% | viability, T/C (second compound 0.000949 µM, first compound 0.0949 µM): 108% | viability, T/C (second compound 0.000949 µM, first compound 0.3 µM): 99.1% | viability, T/C (second compound 0.003 µM, first compound 0.000949 µM): 110% | viability, T/C (second compound 0.003 µM, first compound 0.003 µM): 99.3% | viability, T/C (second compound 0.003 µM, first compound 0.00949 µM): 98% | viability, T/C (second compound 0.003 µM, first compound 0.03 µM): 92.6% | viability, T/C (second compound 0.003 µM, first compound 0.0949 µM): 107% | viability, T/C (second compound 0.003 µM, first compound 0.3 µM): 89.1% | viability, T/C (second compound 0.00949 µM, first compound 0.000949 µM): 97.5% | viability, T/C (second compound 0.00949 µM, first compound 0.003 µM): 102% | viability, T/C (second compound 0.00949 µM, first compound 0.00949 µM): 87.3% | viability, T/C (second compound 0.00949 µM, first compound 0.03 µM): 105% | viability, T/C (second compound 0.00949 µM, first compound 0.0949 µM): 102% | viability, T/C (second compound 0.00949 µM, first compound 0.3 µM): 104% | viability, T/C (second compound 0.03 µM, first compound 0.000949 µM): 98.5% | viability, T/C (second compound 0.03 µM, first compound 0.003 µM): 110% | viability, T/C (second compound 0.03 µM, first compound 0.00949 µM): 95.9% | viability, T/C (second compound 0.03 µM, first compound 0.03 µM): 98.9% | viability, T/C (second compound 0.03 µM, first compound 0.0949 µM): 100% | viability, T/C (second compound 0.03 µM, first compound 0.3 µM): 91.3% | viability, T/C (second compound 0.0949 µM, first compound 0.000949 µM): 86.8% | viability, T/C (second compound 0.0949 µM, first compound 0.003 µM): 99.5% | viability, T/C (second compound 0.0949 µM, first compound 0.00949 µM): 103% | viability, T/C (second compound 0.0949 µM, first compound 0.03 µM): 95.2% | viability, T/C (second compound 0.0949 µM, first compound 0.0949 µM): 103% | viability, T/C (second compound 0.0949 µM, first compound 0.3 µM): 107% | viability, T/C (second compound 0.3 µM, first compound 0.000949 µM): 96.8% | viability, T/C (second compound 0.3 µM, first compound 0.003 µM): 102% | viability, T/C (second compound 0.3 µM, first compound 0.00949 µM): 94.1% | viability, T/C (second compound 0.3 µM, first compound 0.03 µM): 98.5% | viability, T/C (second compound 0.3 µM, first compound 0.0949 µM): 101% | viability, T/C (second compound 0.3 µM, first compound 0.3 µM): 94.9%

CCC(CC)c1cc(NC2CCC(N)C2)n2nccc2n1 (stereo unspecified) + C#Cc1c(F)ccc2cc(O)cc(-c3ncc4c(N5CC6CCC(C5)N6)nc(OCC56CCCN5CC(F)C6)nc4c3F)c12
IC50 (curve of first compound, second compound 0.0316 µM): 4960 nM | IC50 (curve of first compound, second compound 0.1 µM): 4360 nM | IC50 (curve of first compound, second compound 0.316 µM): 5070 nM | IC50 (curve of first compound, second compound 1 µM): 1820 nM | IC50 (curve of first compound, second compound 3.16 µM): 1500 nM | IC50 (curve of first compound, second compound 10 µM): 338 nM | viability, T/C (second compound 0.0316 µM, first compound 0.0316 µM): 96.9% | viability, T/C (second compound 0.0316 µM, first compound 0.1 µM): 107% | viability, T/C (second compound 0.0316 µM, first compound 0.316 µM): 99.9% | viability, T/C (second compound 0.0316 µM, first compound 1 µM): 105% | viability, T/C (second compound 0.0316 µM, first compound 3.16 µM): 79% | viability, T/C (second compound 0.0316 µM, first compound 10 µM): 4.8% | viability, T/C (second compound 0.1 µM, first compound 0.0316 µM): 105% | viability, T/C (second compound 0.1 µM, first compound 0.1 µM): 98.8% | viability, T/C (second compound 0.1 µM, first compound 0.316 µM): 101% | viability, T/C (second compound 0.1 µM, first compound 1 µM): 88% | viability, T/C (second compound 0.1 µM, first compound 3.16 µM): 70% | viability, T/C (second compound 0.1 µM, first compound 10 µM): 3.26% | viability, T/C (second compound 0.316 µM, first compound 0.0316 µM): 117% | viability, T/C (second compound 0.316 µM, first compound 0.1 µM): 96.9% | viability, T/C (second compound 0.316 µM, first compound 0.316 µM): 89.5% | viability, T/C (second compound 0.316 µM, first compound 1 µM): 83.3% | viability, T/C (second compound 0.316 µM, first compound 3.16 µM): 87.2% | viability, T/C (second compound 0.316 µM, first compound 10 µM): 2.95% | viability, T/C (second compound 1 µM, first compound 0.0316 µM): 80.4% | viability, T/C (second compound 1 µM, first compound 0.1 µM): 88.3% | viability, T/C (second compound 1 µM, first compound 0.316 µM): 82.2% | viability, T/C (second compound 1 µM, first compound 1 µM): 82.9% | viability, T/C (second compound 1 µM, first compound 3.16 µM): 19.8% | viability, T/C (second compound 1 µM, first compound 10 µM): 4.12% | viability, T/C (second compound 3.16 µM, first compound 0.0316 µM): 72.4% | viability, T/C (second compound 3.16 µM, first compound 0.1 µM): 76.3% | viability, T/C (second compound 3.16 µM, first compound 0.316 µM): 68.1% | viability, T/C (second compound 3.16 µM, first compound 1 µM): 79.2% | viability, T/C (second compound 3.16 µM, first compound 3.16 µM): 5.75% | viability, T/C (second compound 3.16 µM, first compound 10 µM): 3.27% | viability, T/C (second compound 10 µM, first compound 0.0316 µM): 44.2% | viability, T/C (second compound 10 µM, first compound 0.1 µM): 49.4% | viability, T/C (second compound 10 µM, first compound 0.316 µM): 58.1% | viability, T/C (second compound 10 µM, first compound 1 µM): 36.2% | viability, T/C (second compound 10 µM, first compound 3.16 µM): 7.13% | viability, T/C (second compound 10 µM, first compound 10 µM): 4.45%
